Measured values from patent US20080194574A1, “Pyrazine Derivatives As Effective Compounds Against Infectious Diseases” (AXXIMA PHARMACEUTICALS AG, priority 2003, published 2008).

Biological target: T1, viral kinase pUL-97 (Human cytomegalovirus, UniProt P16788)
T1 construct: The pUL-97 gene was cloned into a baculovirus vector; GST (glutathione S-transferase) (N); made in house; host or cells: Sf9 insect cells, baculovirus
Test: UL97 kinase assay on Immobilon plate
Assay type: biochemical
Conditions: inhibition of UL 97 kinase activity; class by IC50 / % inhibition at 10 μM or 100 μM; read-out: Activity Class [A, B, C]
Method in brief: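 GST-pUL97 from baculovirus-infected Sf9 cells phosphorylated myelin basic protein with ATP (3 μM in the added assay buffer) and γ-[33P]ATP in Tris-HCl pH 7.5 buffer with MnCl2 and DTT. Reaction ran 1 h at 30 °C with graded compound concentrations and was stopped with EDTA. 33P incorporation was measured by scintillation after filter capture and phosphoric acid washes.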

T1 sequence (P16788 whole entry): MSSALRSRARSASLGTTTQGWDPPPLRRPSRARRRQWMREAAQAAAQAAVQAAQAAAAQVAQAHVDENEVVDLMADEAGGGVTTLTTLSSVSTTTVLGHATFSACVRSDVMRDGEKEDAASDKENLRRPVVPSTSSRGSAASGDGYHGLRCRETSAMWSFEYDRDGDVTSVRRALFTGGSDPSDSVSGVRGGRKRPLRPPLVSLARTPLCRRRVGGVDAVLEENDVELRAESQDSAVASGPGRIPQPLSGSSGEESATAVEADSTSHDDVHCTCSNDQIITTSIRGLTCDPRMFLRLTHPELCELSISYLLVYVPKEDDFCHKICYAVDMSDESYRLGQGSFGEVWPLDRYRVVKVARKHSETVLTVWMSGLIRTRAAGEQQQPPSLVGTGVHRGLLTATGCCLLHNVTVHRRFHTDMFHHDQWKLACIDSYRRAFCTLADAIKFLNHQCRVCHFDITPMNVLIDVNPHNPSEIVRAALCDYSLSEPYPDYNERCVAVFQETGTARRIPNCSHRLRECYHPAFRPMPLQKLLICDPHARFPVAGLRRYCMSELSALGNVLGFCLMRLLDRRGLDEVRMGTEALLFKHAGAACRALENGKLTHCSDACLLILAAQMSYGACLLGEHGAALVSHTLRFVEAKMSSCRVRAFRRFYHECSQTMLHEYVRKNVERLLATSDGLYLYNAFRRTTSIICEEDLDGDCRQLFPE

IC50 [µM] | SMILES
10 to 100 | Cc1cccc(-c2cncc(N3CCN(c4ccccc4F)CC3)n2)c1C [compound 250, 6′-(2,3-Dimethyl-phenyl)-4-(2-fluoro-phenyl)-3,4,5,6-tetrahydro-2H-[1,2′]bipyrazinyl]
10 to 100 | Fc1ccccc1N1CCN(c2cncc(-c3csc4ccccc34)n2)CC1 [compound 251, 6′-Benzo[b]thiophen-3-yl-4-(2-fluoro-phenyl)-3,4,5,6-tetrahydro-2H-[1,2′]bipyrazinyl]
10 to 100 | FC(F)(F)c1cccc(N2CCN(c3cncc(-c4ccc5ccccc5c4)n3)CC2)c1 [compound 252, 6′-Naphthalen-2-yl-4-(3-trifluoromethyl-phenyl)-3,4,5,6-tetrahydro-2H-[1,2′]bipyrazinyl]
10 to 100 | CC(C)(C)c1ccc(-c2cncc(N3CCN(c4cccc(C(F)(F)F)c4)CC3)n2)cc1 [compound 253, 6′-(4-tert-Butyl-phenyl)-4-(3-trifluoromethyl-phenyl)-3,4,5,6-tetrahydro-2H-[1,2′]bipyrazinyl]
10 to 100 | OCc1ccc(-c2cncc(N3CCN(c4cccc(C(F)(F)F)c4)CC3)n2)cc1 [compound 254, {4-[4-(3-Trifluoromethyl-phenyl)-3,4,5,6-tetrahydro-2H-[1,2′]bipyrazinyl-6′-yl]-phenyl}-methanol]
10 to 100 | FC(F)(F)c1cccc(N2CCN(c3cncc(-c4ccoc4)n3)CC2)c1 [compound 255, 6′-Furan-3-yl-4-(3-trifluoromethyl-phenyl)-3,4,5,6-tetrahydro-2H-[1,2′]bipyrazinyl]
10 to 100 | Cc1ccccc1-c1cncc(N2CCN(c3ccncc3)CC2)n1 [compound 256, 4-Pyridin-4-yl-6′-o-tolyl-3,4,5,6-tetrahydro-2H-[1,2′]bipyrazinyl]
1 to 10 | CC(C)(C)c1ccc(-c2cncc(N3CCN(c4ccncc4)CC3)n2)cc1 [compound 257, 6′-(4-tert-Butyl-phenyl)-4-pyridin-4-yl-3,4,5,6-tetrahydro-2H-[1,2′]bipyrazinyl]
1 to 10 | OCc1ccc(-c2cncc(N3CCN(c4ccncc4)CC3)n2)cc1 [compound 258, [4-(4-Pyridin-4-yl-3,4,5,6-tetrahydro-2H-[1,2′]bipyrazinyl-6′-yl)-phenyl]-methanol]
10 to 100 | COc1ccc(Cl)cc1-c1cncc(N2CCN(c3ccncc3)CC2)n1 [compound 259, 6′-(5-Chloro-2-methoxy-phenyl)-4-pyridin-4-yl-3,4,5,6-tetrahydro-2H-[1,2′]bipyrazinyl]
1 to 10 | CCOc1ccc(-c2cncc(N3CCN(c4ccncc4)CC3)n2)cc1 [compound 260, 6′-(4-Ethoxy-phenyl)-4-pyridin-4-yl-3,4,5,6-tetrahydro-2H-[1,2′]bipyrazinyl]
1 to 10 | COc1ccc(N2CCN(c3cncc(-c4ccsc4)n3)CC2)cc1OC [compound 261, 4-(3,4-Dimethoxy-phenyl)-6′-thiophen-3-yl-3,4,5,6-tetrahydro-2H-[1,2′]bipyrazinyl]
10 to 100 | COc1ccc(N2CCN(c3cncc(-c4ccccc4C)n3)CC2)cc1OC [compound 262, 4-(3,4-Dimethoxy-phenyl)-6′-o-tolyl-3,4,5,6-tetrahydro-2H-[1,2′]bipyrazinyl]
10 to 100 | COc1ccc(N2CCN(c3cncc(-c4ccc(C(C)(C)C)cc4)n3)CC2)cc1OC [compound 263, 6′-(4-tert-Butyl-phenyl)-4-(3,4-dimethoxy-phenyl)-3,4,5,6-tetrahydro-2H-[1,2′]bipyrazinyl]
10 to 100 | COc1ccc(N2CCN(c3cncc(-c4ccccc4CO)n3)CC2)cc1OC [compound 264, {2-[4-(3,4-Dimethoxy-phenyl)-3,4,5,6-tetrahydro-2H-[1,2′]bipyrazinyl-6′-yl]-phenyl}-methanol]
10 to 100 | COc1ccc(-c2cncc(N3CCN(c4ccc(C)cc4)CC3)n2)cc1F [compound 265, 6′-(3-Fluoro-4-methoxy-phenyl)-4-p-tolyl-3,4,5,6-tetrahydro-2H-[1,2′]bipyrazinyl]
10 to 100 | CCOc1ccc(-c2cncc(N3CCN(c4ccc(C)cc4)CC3)n2)cc1 [compound 266, 6′-(4-Ethoxy-phenyl)-4-p-tolyl-3,4,5,6-tetrahydro-2H-[1,2′]bipyrazinyl]
< 1 | Fc1ccc(N2CCN(c3cncc(-c4ccc5ccccc5c4)n3)CC2)cc1 [compound 267, 4-(4-Fluoro-phenyl)-6′-naphthalen-2-yl-3,4,5,6-tetrahydro-2H-[1,2′]bipyrazinyl]
10 to 100 | Fc1ccc(N2CCN(c3cncc(-c4ccc(-c5ccccc5)c(F)c4)n3)CC2)cc1 [compound 268, 6′-(2-Fluoro-biphenyl-4-yl)-4-(4-fluoro-phenyl)-3,4,5,6-tetrahydro-2H-[1,2′]bipyrazinyl]
1 to 10 | OCc1ccc(-c2cncc(N3CCN(c4ccc(F)cc4)CC3)n2)cc1 [compound 269, {4-[4-(4-Fluoro-phenyl)-3,4,5,6-tetrahydro-2H-[1,2′]bipyrazinyl-6′-yl]-phenyl}-methanol]
10 to 100 | Fc1ccc(N2CCN(c3cncc(-c4ccoc4)n3)CC2)cc1 [compound 270, 4-(4-Fluoro-phenyl)-6′-furan-3-yl-3,4,5,6-tetrahydro-2H-[1,2′]bipyrazinyl]

IC50 [µM] | SMILES
10 to 100 | CCOc1ccc(-c2cncc(N3CCN(c4ccc(F)cc4)CC3)n2)cc1 [compound 271, 6′-(4-Ethoxy-phenyl)-4-(4-fluoro-phenyl)-3,4,5,6-tetrahydro-2H-[1,2′]bipyrazinyl]
1 to 10 | Fc1ccc(N2CCN(c3cncc(-c4cc5ccccc5s4)n3)CC2)c(F)c1 [compound 272, 6′-Benzo[b]thiophen-2-yl-4-(2,4-difluoro-phenyl)-3,4,5,6-tetrahydro-2H-[1,2′]bipyrazinyl]
10 to 100 | CC(=O)c1cccc(-c2cncc(N3CCN(c4ccc(F)cc4F)CC3)n2)c1 [compound 273, 1-{3-[4-(2,4-Difluoro-phenyl)-3,4,5,6-tetrahydro-2H-[1,2′]bipyrazinyl-6′-yl]-phenyl}-ethanone]
1 to 10 | CSc1ccc(-c2cncc(N3CCN(c4ccc(F)cc4F)CC3)n2)cc1 [compound 274, 4-(2,4-Difluoro-phenyl)-6′-(4-methylsulfanyl-phenyl)-3,4,5,6-tetrahydro-2H-[1,2′]bipyrazinyl]
1 to 10 | CC(=O)c1ccc(-c2cncc(N3CCN(c4ccc(F)cc4F)CC3)n2)cc1 [compound 275, 1-{4-[4-(2,4-Difluoro-phenyl)-3,4,5,6-tetrahydro-2H-[1,2′]bipyrazinyl-6′-yl]-phenyl}-ethanone]
1 to 10 | CC(=O)c1ccc(N2CCN(c3cncc(-c4ccc(F)cc4)n3)CC2)cc1 [compound 276, 1-{4-[6′-(4-Fluoro-phenyl)-2,3,5,6-tetrahydro-[1,2′]bipyrazinyl-4-yl]-phenyl}-ethanone]
10 to 100 | c1ccc(C2CCN(c3cncc(-c4ccoc4)n3)CC2)cc1 [compound 277, 2-Furan-3-yl-6-(4-phenyl-piperidin-1-yl)-pyrazine]
10 to 100 | COc1ccc(-c2cncc(N3CCC(c4ccccc4)CC3)n2)cc1F [compound 278, 2-(3-Fluoro-4-methoxy-phenyl)-6-(4-phenyl-piperidin-1-yl)-pyrazine]
10 to 100 | Cc1cccc(N2CCN(c3cncc(-c4csc5ccccc45)n3)CC2C)c1 (centres unmarked) [compound 279, 6′-Benzo[b]thiophen-3-yl-3-methyl-4-m-tolyl-3,4,5,6-tetrahydro-2H-[1,2′]bipyrazinyl]
1 to 10 | CN(C)c1ccc(-c2cncc(N3CCC(c4ccccc4)CC3)n2)cc1 [compound 280, Dimethyl-{4-[6-(4-phenyl-piperidin-1-yl)-pyrazin-2-yl]-phenyl}-amine]
10 to 100 | Cc1ccc(N2CCN(c3cncc(-c4ccc(F)c(Cl)c4)n3)CC2)c(C)c1 [compound 281, 6′-(3-Chloro-4-fluoro-phenyl)-4-(2,4-dimethyl-phenyl)-3,4,5,6-tetrahydro-2H-[1,2′]bipyrazinyl]
1 to 10 | COc1ccc(N2CCN(c3cncc(-c4cc5ccccc5o4)n3)CC2)cc1 [compound 282, 6′-Benzofuran-2-yl-4-(4-methoxy-phenyl)-3,4,5,6-tetrahydro-2H-[1,2′]bipyrazinyl]
1 to 10 | COc1ccc(N2CCN(c3cncc(-c4csc5ccccc45)n3)CC2)cc1 [compound 283, 6′-Benzo[b]thiophen-3-yl-4-(4-methoxy-phenyl)-3,4,5,6-tetrahydro-2H-[1,2′]bipyrazinyl]
1 to 10 | COc1cccc(N2CCN(c3cncc(-c4ccc(C)cc4)n3)CC2)c1 [compound 284, 4-(3-Methoxy-phenyl)-6′-p-tolyl-3,4,5,6-tetrahydro-2H-[1,2′]bipyrazinyl]
1 to 10 | COc1cccc(N2CCN(c3cncc(-c4cc5ccccc5o4)n3)CC2)c1 [compound 285, 6′-Benzofuran-2-yl-4-(3-methoxy-phenyl)-3,4,5,6-tetrahydro-2H-[1,2′]bipyrazinyl]
1 to 10 | COc1cccc(N2CCN(c3cncc(-c4csc5ccccc45)n3)CC2)c1 [compound 286, 6′-Benzo[b]thiophen-3-yl-4-(3-methoxy-phenyl)-3,4,5,6-tetrahydro-2H-[1,2′]bipyrazinyl]
10 to 100 | Clc1ccc(N2CCN(c3cncc(-c4cccc5ccccc45)n3)CC2)cc1Cl [compound 287, 4-(3,4-Dichloro-phenyl)-6′-naphthalen-1-yl-3,4,5,6-tetrahydro-2H-[1,2′]bipyrazinyl]
10 to 100 | COc1ccc(-c2cncc(N3CCN(c4ccc(C)cc4C)CC3)n2)cc1OC [compound 288]
10 to 100 | CC(=O)c1ccc(-c2cncc(N3CCN(c4ccc(C)cc4C)CC3)n2)s1 [compound 289, 1-{5-[4-(2,4-Dimethyl-phenyl)-3,4,5,6-tetrahydro-2H-[1,2′]bipyrazinyl-6′-yl]-thiophen-2-yl}-ethanone]
< 1 | COc1ccc(N2CCN(c3cncc(-c4ccc(C(N)=O)cc4)n3)CC2)cc1 [compound 290, 4-[4-(4-Methoxy-phenyl)-3,4,5,6-tetrahydro-2H-[1,2′]bipyrazinyl-6′-yl]-benzamide]
